Source: US20130303509A1, “NAMPT INHIBITORS” (AbbVie Inc., priority 2012, published 2013)
pIC50: −log10 of the molar value.

Each compound was assayed on PC3 cells (assay: NAMPT Cell Proliferation Assay). Details: Homo sapiens, PC-3, 120 h, 5 days incubation, cell viability by Cell Titer Glo.
Type: cell-based
Procedure, shortened: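 Seeded at 500 cells/well in RPMI with 10% heat-inactivated FBS and left to attach overnight at 37° C, 5% CO2. Compounds were added as 10-fold dilutions […] for 5 days, then viability was read by CellTiter-Glo. IC50s came from sigmoidal fits of percent inhibition.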

Structure (SMILES) | pIC50
Cc1ncccc1N1CC(C(=O)Nc2ccc(C3CCN(C(=O)c4cccnn4)CC3)cc2)C1 [Example 158, 1-(2-methylpyridin-3-yl)-N-{4-[1-(pyridazin-3-ylcarbonyl)piperidin-4-yl]phenyl}azetidine-3-carboxamide] | 5.89
CCCCC(=O)N1CCC(c2ccc(NC(=O)C3CN(c4cccnc4C)C3)cc2)CC1 [Example 159, 1-(2-methylpyridin-3-yl)-N-[4-(1-pentanoylpiperidin-4-yl)phenyl]azetidine-3-carboxamide] | 6.74
CCC(C)CC(=O)N1CCC(c2ccc(NC(=O)C3CN(c4cccnc4C)C3)cc2)CC1 (centres unmarked) [Example 160, N-{4-[1-(3-methylpentanoyl)piperidin-4-yl]phenyl}-1-(2-methylpyridin-3-yl)azetidine-3-carboxamide] | 6.76
Cc1ncccc1N1CC(C(=O)Nc2ccc(C3CCN(C(=O)CC4CCCC4)CC3)cc2)C1 [Example 162, N-{4-[1-(cyclopentylacetyl)piperidin-4-yl]phenyl}-1-(2-methylpyridin-3-yl)azetidine-3-carboxamide] | 6.65
Cc1ncccc1N1CC(C(=O)Nc2ccc(C3CCN(C(=O)C4CC4C)CC3)cc2)C1 (centres unmarked) [Example 163, N-(4-{1-[(2-methylcyclopropyl)carbonyl]piperidin-4-yl}phenyl)-1-(2-methylpyridin-3-yl)azetidine-3-carboxamide] | 6.92
Cc1ncccc1N1CC(C(=O)Nc2ccc(C3CCN(C(=O)CN4CCCC4)CC3)cc2)C1 [Example 166, 1-(2-methylpyridin-3-yl)-N-{4-[1-(pyrrolidin-1-ylacetyl)piperidin-4-yl]phenyl}azetidine-3-carboxamide] | 5.97
Cc1ncccc1N1CC(C(=O)Nc2ccc(C3CCN(C(=O)c4ccsc4)CC3)cc2)C1 [Example 169, 1-(2-methylpyridin-3-yl)-N-{4-[1-(thiophen-3-ylcarbonyl)piperidin-4-yl]phenyl}azetidine-3-carboxamide] | 7.18

Further compounds by rising pIC50, results first:

pIC50 | Structure (SMILES)
5.20 | Cc1ncccc1N1CC(C(=O)Nc2ccc(C3CCN(C(=O)[C@H]4CCC(=O)N4)CC3)cc2)C1 [Example 167, 1-(2-methylpyridin-3-yl)-N-{4-[1-(5-oxo D-prolyl)piperidin-4-yl]phenyl}azetidine-3-carboxamide]
6.00 | Cc1ncccc1N1CC(C(=O)Nc2ccc(C3CCN(C(=O)CCN(C)C)CC3)cc2)C1 [Example 168, N-{4-[1-(N,N-dimethyl-beta-alanyl)piperidin-4-yl]phenyl}-1-(2-methylpyridin-3-yl)azetidine-3-carboxamide]
6.02 | Cc1ncccc1N1CC(C(=O)Nc2ccc(C3CCN(C(=O)c4ccc(C(F)(F)F)cc4)CC3)cc2)C1 [Example 157, 1-(2-methylpyridin-3-yl)-N-(4-{1-[4-(trifluoromethyl)benzoyl]piperidin-4-yl}phenyl)azetidine-3-carboxamide]
6.15 | Cc1ncccc1N1CC(C(=O)Nc2ccc(C3CCN(C(=O)c4ccc(Cl)cc4)CC3)cc2)C1 [Example 156, N-{4-[1-(4-chlorobenzoyl)piperidin-4-yl]phenyl}-1-(2-methylpyridin-3-yl)azetidine-3-carboxamide]
6.67 | Cc1ncccc1N1CC(C(=O)Nc2ccc(C3CCN(C(=O)CC4C[C@@H]5CC[C@H]4C5)CC3)cc2)C1 (stereo partly drawn) [Example 161, N-(4-{1-[(1S,4R)-bicyclo[2.2.1]hept-2-ylacetyl]piperidin-4-yl}phenyl)-1-(2-methylpyridin-3-yl)azetidine-3-carboxamide]
6.69 | Cc1ncccc1N1CC(C(=O)Nc2ccc(C3CCN(C(=O)CN4CCOCC4)CC3)cc2)C1 [Example 164, 1-(2-methylpyridin-3-yl)-N-{4-[1-(morpholin-4-ylacetyl)piperidin-4-yl]phenyl}azetidine-3-carboxamide]
7.17 | Cc1ncccc1N1CC(C(=O)Nc2ccc(C3CCN(C(=O)c4ccoc4)CC3)cc2)C1 [Example 165, N-{4-[1-(furan-3-ylcarbonyl)piperidin-4-yl]phenyl}-1-(2-methylpyridin-3-yl)azetidine-3-carboxamide]
